Source: patent US7169759B1, “Tetrapeptide inhibitors of β-secretase” (Elan Pharmaceuticals, Inc., priority 1999, dated 2007)
*1 amine or outer side, *2 acyl side, *3 side chain or, on linkers, in order; H or OH if unused. Where a SMILES comes first, the peptide text is derived from it. [ ]: non-standard residue; d: D form. The star is where a group is joined. Sta = CC(C)C[C@H](N)[C@@H](O)CC(=O)O; X1 = CC(C)CC(N[*:1])C(O)CC(=O)[*:2]; Phg = N[CH](C(=O)O)c1ccccc1; Isovaleryl = CC(C)CC(=O)*; Boc = CC(C)(C)OC(=O)*

Key:
Human brain β-Secretase = biological target: T1, Human brain β-Secretase (Homo sapiens, UniProt P56817); assay: MBP-C125 enzyme inhibition assay (ELISA detection of β-secretase cleavage of MBP-C125 substrate); type: biochemical; conditions: pH 4.5, 37° C., 90 minutes, highest concentration 200 μM, read-out: IC50 Group
T1 construct: Human brain β-Secretase from the concentrated HiQ pool prepared Jul; from tissue; host or cells: human brain
T1 sequence (P56817 46-501): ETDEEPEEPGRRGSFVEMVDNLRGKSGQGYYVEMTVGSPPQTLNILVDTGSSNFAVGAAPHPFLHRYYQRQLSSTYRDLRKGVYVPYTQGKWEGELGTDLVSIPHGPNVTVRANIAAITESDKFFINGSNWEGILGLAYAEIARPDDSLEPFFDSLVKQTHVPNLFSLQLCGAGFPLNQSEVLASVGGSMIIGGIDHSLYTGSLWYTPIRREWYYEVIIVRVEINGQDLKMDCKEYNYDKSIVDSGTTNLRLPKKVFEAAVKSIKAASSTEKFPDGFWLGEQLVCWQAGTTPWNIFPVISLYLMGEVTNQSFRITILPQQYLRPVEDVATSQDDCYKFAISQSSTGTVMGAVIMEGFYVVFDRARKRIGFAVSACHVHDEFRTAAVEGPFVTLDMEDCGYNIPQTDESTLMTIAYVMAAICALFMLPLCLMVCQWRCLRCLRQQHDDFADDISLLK
Method: Enzyme Inhibition Assay Purpose/Rationale:
The MBP-C125 assay, determines relative inhibition of β-secretase cleavage of an MPB-C125 substrate by the compounds assayed. Human brain β-Secretase from the concentrated HiQ pool prepared Jul. 16, 1997 in 0.20% Triton is used in the assay. Inhibition data was obtained from an ELISA which uses an anti-MBP capture antibody (on precoated and blocked 96-well high binding plates) followed by incubation with diluted enzyme reaction supernatant, incubation with an anti-SW192 specific biotinylated reporter antibody and incubation with streptavidin/alkaline phosphatase. Detection was effected by a fluorescent substrate signal on cleavage by the phosphatase. The ELISA only detected cleavage following Leu 596 at the substrate's Swedish APP 751 mutation site.
Compounds were diluted in a 1:1 dilution series to a six-point concentration curve (two wells per concentration) which took up one 96-plate row per compound tested.
Each of the test compounds was weighed out into a vial and DMSO was added to make up a 10 mM solution. To obtain a final compound concentration of 200 μM at the high point of a 6-point dilution curve, 100 μL of the 10 mM solution was added to well C1 of a 96-well V-bottom plate. Fifty μL of DMSO was added to odd wells of row C across the plate and 1:1 serial dilutions were made. 10 μL of each dilution was added to each of two wells on row C of a corresponding V-bottom plate to which 190 μL of 52 mM NaOAc/7.9% DMSO, pH 4.5 were pre-added. The NaOAc diluted compound plate was spun down to pellet precipitant and 20 μL/well was transferred to a corresponding flat-bottom plate to which 30 μL of ice-cold enzyme-substrate mixture (2.5 μL MBP-C125 substrate, 0.03 μL enzyme and 24.5 ice cold 0.09% TX100 per 30 μl) was added. The compound concentration in the final enzyme reaction was thus 50 times less than the starting concentration. The final reaction mixture of 200 μM compound for the highest curve point was in 5% DMSO, 20 mM NaAc, 0.06% TX100, at pH 4.5. The enzyme reaction was started by warming the plates to 37° C. After 90 minutes at 37° C., 200 μL/well cold specimen diluent was added to stop the reaction and 20 μL/well was transferred to a corresponding α-MBP coated ELISA plate, containing 80 μL/well specimen diluent. This reaction was incubated overnight at 4° C. and the ELISA was developed the next day using a 2 hr. incubation with α-192SW followed by Streptavidin-AP conjugate and flourescent substrate. The signal was read on a fluorescent plate reader.

β-secretase = β-secretase (Homo sapiens, UniProt P56817); assay: assays with β-secretase (pepstatin remark); type: biochemical
Sequence of β-secretase (P56817 46-501): as above

SMILES	IC50 (Human brain β-Secretase) [µM]	inhibitory activity in assays with β-secretase (β-secretase)
CSCCC(NC(=O)C(NC(=O)OC(C)(C)C)C(C)C)C(=O)NC(CC(C)C)C(O)CC(=O)NC(C(=O)NC(C)c1ccc(C(=O)O)cc1)C(C)C (centres unmarked) [Example 31]	10 to 99	–
CSCCC(NC(=O)C(NC(=O)OC(C)(C)C)C(C)C)C(=O)NC(CC(C)C)C(O)CC(=O)NC(C(=O)NC1CCC(C(=O)O)C(C(=O)O)C1)C(C)C (centres unmarked) [Example 32]	< 10	–
CSCCC(NC(=O)C(NC(=O)OC(C)(C)C)C(C)C)C(=O)NC(CC(C)C)C(O)CC(=O)NC(C(=O)NC(C(=O)O)c1ccccc1)C(C)C (centres unmarked) [Example 35] (Boc-VM[X1]V[Phg]-OH; configuration not given here)	10 to 99	–
CSCCC(NC(=O)C(NC(=O)OC(C)(C)C)C(C)C)C(=O)NC(CC(C)C)C(O)CC(=O)NC(C(=O)NCCc1ccc(O)c([N+](=O)[O-])c1)C(C)C (centres unmarked) [Example 36]	< 10	–
CC(=O)NC(C(=O)NC(C(=O)NC(Cc1ccccc1)C(O)CC(=O)NC(C(=O)NCc1ccc(C(=O)O)cc1)C(C)C)c1ccccc1)C(C)C (centres unmarked) [Example 37]	< 10	–
CC(C)CC(NC(=O)C(NC(=O)C(NC(=O)OCc1ccccc1)C(C)C)c1ccccc1)C(O)CC(=O)NC(C(=O)NCc1ccc(C(=O)O)cc1)C(C)C (centres unmarked) [Example 38]	10 to 99	–
CC(C)CC(NC(=O)C(NC(=O)C(NC(=O)OC(C)(C)C)C(C)C)c1ccccc1)C(O)CC(=O)NC(C(=O)NCc1ccc(C(=O)O)cc1)C(C)C (centres unmarked) [Example 39]	10 to 99	–
CC(C)CC(=O)N[C@H](C(=O)N[C@H](C(=O)N[C@@H](CC(C)C)[C@@H](O)CC(=O)N[C@@H](C)C(=O)N[C@@H](CC(C)C)[C@@H](O)CC(=O)O)C(C)C)C(C)C [pepstatin] (Isovaleryl-VV[Sta]A[Sta]-OH)	–	no inhibitory activity
